Measured values as given in US20260184710A1, “CASITAS B-LINEAGE LYMPHOMA PROTOONCOGENE B (CBL-B) DEGRADING COMPOUNDS AND ASSOCIATED METHODS OF USE” (Arvinas Operations, Inc., priority 2022, published 2026).

Assays:
Cbl-b [1] = biological target: T1, Cbl-b (Homo sapiens, UniProt Q13191); assay: Cbl-b Degradation Method A (FACS, anti-Cbl-b antibody staining); format: cell-based; details: Cbl-b-HiBit KI Jurkat Cells, incubated at least 20 hours; for DC50: half maximal degradation, read-out: Cbl-b Degredation Method A IC50; for Dmax: Jurkat, maximum degradation observed, read-out: Cbl-b Degredation Method A Dmax (%)
T1 construct: Cbl-b-HiBit KI Jurkat Cells were purchased from Promega; host or cells: Cbl-b-HiBiT knock-in Jurkat cells
T1 sequence (Q13191 whole entry): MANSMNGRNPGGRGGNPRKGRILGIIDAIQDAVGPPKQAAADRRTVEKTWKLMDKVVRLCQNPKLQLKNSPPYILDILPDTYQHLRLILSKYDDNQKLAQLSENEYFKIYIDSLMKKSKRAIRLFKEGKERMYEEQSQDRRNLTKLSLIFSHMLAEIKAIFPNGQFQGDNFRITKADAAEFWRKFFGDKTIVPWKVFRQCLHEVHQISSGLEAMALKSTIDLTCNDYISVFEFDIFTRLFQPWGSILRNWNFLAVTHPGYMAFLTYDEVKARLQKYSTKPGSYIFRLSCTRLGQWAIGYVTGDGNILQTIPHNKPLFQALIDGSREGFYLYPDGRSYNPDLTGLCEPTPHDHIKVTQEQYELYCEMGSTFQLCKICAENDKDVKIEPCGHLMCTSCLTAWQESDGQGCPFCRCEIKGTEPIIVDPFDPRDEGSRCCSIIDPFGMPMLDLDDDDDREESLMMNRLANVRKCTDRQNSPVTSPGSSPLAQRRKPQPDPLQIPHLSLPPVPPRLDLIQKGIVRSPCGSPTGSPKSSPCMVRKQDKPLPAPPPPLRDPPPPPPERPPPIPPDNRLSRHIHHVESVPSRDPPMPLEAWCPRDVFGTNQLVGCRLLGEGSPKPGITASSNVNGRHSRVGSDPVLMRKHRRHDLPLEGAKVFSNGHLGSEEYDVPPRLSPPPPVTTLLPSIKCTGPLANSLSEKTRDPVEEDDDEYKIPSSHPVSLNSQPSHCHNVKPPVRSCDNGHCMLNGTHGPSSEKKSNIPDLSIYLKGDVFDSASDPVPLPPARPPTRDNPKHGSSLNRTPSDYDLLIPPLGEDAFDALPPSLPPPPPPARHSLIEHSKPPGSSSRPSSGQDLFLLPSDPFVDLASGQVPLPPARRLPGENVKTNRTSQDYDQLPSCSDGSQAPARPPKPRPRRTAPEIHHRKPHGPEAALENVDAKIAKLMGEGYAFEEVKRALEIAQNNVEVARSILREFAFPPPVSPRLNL
Summary of the method: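 Readout is flow cytometry of fixed, permeabilized cells immunostained for Cbl-b (primary 1:200, AF488 secondary). Cells were Cbl-b-HiBit knock-in Jurkat, exposed to compound ≥20 h at 37 °C; half-maximal degradation concentration (DC50) and maximal degradation (Dmax) calculated relative to control.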

Cbl-b [2] = biological target: T1, Cbl-b; assay: Cbl-b Degradation Method B (Nano-Glo HiBiT lytic detection); format: cell-based; details: Cbl-b-HiBit KI Jurkat Cells, incubated at least 6-24 hours; for DC50: half maximal degradation, read-out: Cbl-b Degredation Method B IC50; for Dmax / Cbl-b Degredation Method B Dmax (%): maximum degradation observed; for Dmax: read-out: Cbl-b Degredation Method B Dmax (%)
Summary of the method: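 An 11-point, 3-fold compound dilution was applied for 6-24 hours to Jurkat cells carrying HiBiT-tagged endogenous Cbl-b. Lytic HiBiT luminescence quantified residual protein. Outputs are DC50 and Dmax relative to DMSO control.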

Row | DC50 (Cbl-b [1]) | Dmax (Cbl-b [1]) | DC50 (Cbl-b [2]) | Dmax (Cbl-b [2]) | Cbl-b Degredation Method B Dmax (%) (Cbl-b [2]) | Structure (SMILES)
1 | 5 to 50 nM | 35 to 70% | 5 to 50 nM | 35 to 70% | – | Cn1cnnc1C[C@]1(c2cccc(N3Cc4c(cc(N5CC6(CCN(CC7(F)CCN(c8ccc9c(c8)C(=O)N(C8CCC(=O)NC8=O)C9=O)CC7)CC6)C5)cc4C(F)(F)F)C3=O)c2)C[C@H](C#N)C1 (stereo partly shown) [Example 172, (1r,3r)-3-(3-{6-[7-({1-[2-(2,6-dioxopiperidin-3-yl)-1,3-dioxo-2,3-dihydro-1H-isoindol-5-yl]-4-fluoropiperidin-4-yl}methyl)-2,7-diazaspiro[3.5]nonan-2-yl]-1-oxo-4-(trifluoromethyl)-2,3-dihydro-1H-isoindol-2-yl}phenyl)-3-[(4-methyl-4H-1,2,4-triazol-3-yl)methyl]cyclobutane-1-carbonitrile]
2 | 5 to 50 nM | 35 to 70% | < 5 nM | 35 to 70% | – | CC1c2nc(N3CCC(O[C@H]4CC[C@H](CN5CCC6(C5)CN(c5cc7c(c(C(F)(F)F)c5)CN(c5cccc([C@]8(Cc9nncn9C)C[C@@H](C#N)C8)c5)C7=O)C6)CC4)CC3)ccc2C(=O)N1C1CCC(=O)NC1=O (stereo partly shown) [Example 178, (1r,3r)-3-[(4-methyl-4H-1,2,4-triazol-3-yl)methyl]-3-{3-[1-oxo-6-(6-{[(1r,4r)-4-({1-[6-(2,6-dioxopiperidin-3-yl)-7-methyl-5-oxo-5H,6H,7H-pyrrolo[3,4-b]pyridin-2-yl]piperidin-4-yl}oxy)cyclohexyl]methyl}-2,6-diazaspiro[3.4]octan-2-yl)-4-(trifluoromethyl)-2,3-dihydro-1H-isoindol-2-yl]phenyl}cyclobutane-1-carbonitrile]
3 | 5 to 50 nM | < 35% | < 5 nM | – | C (C ≤ 35) | CC(C)n1c(=O)n(C2CCC(=O)NC2=O)c2cccc(N3CCC(O[C@H]4CC[C@H](CN5CC6(CCN(Cc7cc8c(c(C(F)(F)F)c7)CN(c7cccc([C@]9(Cc%10nncn%10C)C[C@@H](C#N)C9)c7)C8=O)CC6)C5)CC4)CC3)c21 (stereo partly shown) [Example 321, (1r,3r)-3-[(4-methyl-4H-1,2,4-triazol-3-yl)methyl]-3-(3-{1-oxo-6-[(2-{[(1r,4r)-4-({1-[1-(2,6-dioxopiperidin-3-yl)-2-oxo-3-(propan-2-yl)-2,3-dihydro-1H-1,3-benzodiazol-4-yl]piperidin-4-yl}oxy)cyclohexyl]methyl}-2,7-diazaspiro[3.5]nonan-7-yl)methyl]-4-(trifluoromethyl)-2,3-dihydro-1H-isoindol-2-yl}phenyl)cyclobutane-1-carbonitrile]
4 | > 500 nM | < 35% | > 500 nM | – | – | Cn1cnnc1CC1(c2cccc(N3Cc4c(cc(CN5CCC(N6CCC7(CCN(c8ccc9c(c8)C(=O)N(C8CCC(=O)NC8=O)C9=O)CC7)CC6)CC5)cc4C(F)(F)F)C3=O)c2)COC1 (stereo not shown) [Example 100, 2-(2,6-dioxopiperidin-3-yl)-5-[9-(1-{[2-(3-{3-[(4-methyl-4H-1,2,4-triazol-3-yl)methyl]oxetan-3-yl}phenyl)-3-oxo-7-(trifluoromethyl)-2,3-dihydro-1H-isoindol-5-yl]methyl}piperidin-4-yl)-3,9-diazaspiro[5.5]undecan-3-yl]-2,3-dihydro-1H-isoindole-1,3-dione]
5 | > 500 nM | – | > 500 nM | – | – | Cn1cnnc1CC1(c2cccc(N3Cc4c(cc(CN5CCC(CN6CCC(c7ccc8c(c7)C(=O)N(C7CCC(=O)NC7=O)C8=O)CC6)CC5)cc4C(F)(F)F)C3=O)c2)COC1 (stereo not shown) [Example 82, 2-(2,6-dioxopiperidin-3-yl)-5-{1-[(1-{[2-(3-{3-[(4-methyl-4H-1,2,4-triazol-3-yl)methyl]oxetan-3-yl}phenyl)-3-oxo-7-(trifluoromethyl)-2,3-dihydro-1H-isoindol-5-yl]methyl}piperidin-4-yl)methyl]piperidin-4-yl}-2,3-dihydro-1H-isoindole-1,3-dione]
6 | < 5 nM | > 70% | < 5 nM | > 70% | – | C[C@H]1CN(Cc2cc3c(c(C(F)(F)F)c2)CN(c2cccc(C4(Cc5nncn5C)COC4)c2)C3=O)CCN1CC1CCC(OC2CCN(c3ccc4c(c3F)CN(C3CCC(=O)NC3=O)C4=O)CC2)CC1 (stereo partly drawn) [Example 237, 3-[4-fluoro-1-oxo-5-(4-{[(1rs,4rs)-4-{[(2S)-2-methyl-4-{[2-(3-{3-[(4-methyl-4H-1,2,4-triazol-3-yl)methyl]oxetan-3-yl}phenyl)-3-oxo-7-(trifluoromethyl)-2,3-dihydro-1H-isoindol-5-yl]methyl}piperazin-1-yl]methyl}cyclohexyl]oxy}piperidin-1-yl)-2,3-dihydro-1H-isoindol-2-yl]piperidine-2,6-dione]
7 | > 500 nM | – | > 500 nM | – | – | Cn1cnnc1CC1(c2cccc(N3Cc4c(cc(N5CC6(CCN(c7ccc8c(c7)C(=O)N(C7CCC(=O)NC7=O)C8=O)C6)C5)cc4C(F)(F)F)C3=O)c2)COC1 (stereo not shown) [Example 126, 2-(2,6-dioxopiperidin-3-yl)-5-{2-[2-(3-{3-[(4-methyl-4H-1,2,4-triazol-3-yl)methyl]oxetan-3-yl}phenyl)-3-oxo-7-(trifluoromethyl)-2,3-dihydro-1H-isoindol-5-yl]-2,6-diazaspiro[3.4]octan-6-yl}-2,3-dihydro-1H-isoindole-1,3-dione]
8 | 5 to 50 nM | > 70% | < 5 nM | 35 to 70% | – | Cn1cnnc1C[C@]1(c2cccc(N3Cc4c(cc(N5CC6(CCN(CC7CCN(c8ccc9c(c8Cl)CN(C8CCC(=O)NC8=O)C9=O)CC7)CC6)C5)cc4C(F)(F)F)C3=O)c2)C[C@H](C#N)C1 (stereo partly shown) [Example 173, (1r,3r)-3-(3-{6-[7-({1-[4-chloro-2-(2,6-dioxopiperidin-3-yl)-1-oxo-2,3-dihydro-1H-isoindol-5-yl]piperidin-4-yl}methyl)-2,7-diazaspiro[3.5]nonan-2-yl]-1-oxo-4-(trifluoromethyl)-2,3-dihydro-1H-isoindol-2-yl}phenyl)-3-[(4-methyl-4H-1,2,4-triazol-3-yl)methyl]cyclobutane-1-carbonitrile]
9 | > 500 nM | – | > 500 nM | – | – | Cn1cnnc1CC1(c2cccc(N3Cc4c(cc(CN5CCC[C@H](CN6CCC7(CC6)CCN(c6ccc8c(c6)C(=O)N(C6CCC(=O)NC6=O)C8=O)CC7)C5)cc4C(F)(F)F)C3=O)c2)COC1 (stereo partly drawn) [Example 98, 2-(2,6-dioxopiperidin-3-yl)-5-(9-{[(3R)-1-{[2-(3-{3-[(4-methyl-4H-1,2,4-triazol-3-yl)methyl]oxetan-3-yl}phenyl)-3-oxo-7-(trifluoromethyl)-2,3-dihydro-1H-isoindol-5-yl]methyl}piperidin-3-yl]methyl}-3,9-diazaspiro[5.5]undecan-3-yl)-2,3-dihydro-1H-isoindole-1,3-dione]
10 | 50 to 500 nM | > 70% | < 5 nM | – | C (C ≤ 35) | CC(C)n1c(=O)n(C2CCC(=O)NC2=O)c2cccc(N3CCC(O[C@H]4CC[C@H](CN5CCC6(CC5)CN(Cc5cc7c(c(C(F)(F)F)c5)CN(c5cccc([C@]8(Cc9nncn9C)C[C@@H](C#N)C8)c5)C7=O)C6)CC4)CC3)c21 (stereo partly shown) [Example 320, (1r,3r)-3-[(4-methyl-4H-1,2,4-triazol-3-yl)methyl]-3-(3-{1-oxo-6-[(7-{[(1r,4r)-4-({1-[1-(2,6-dioxopiperidin-3-yl)-2-oxo-3-(propan-2-yl)-2,3-dihydro-1H-1,3-benzodiazol-4-yl]piperidin-4-yl}oxy)cyclohexyl]methyl}-2,7-diazaspiro[3.5]nonan-2-yl)methyl]-4-(trifluoromethyl)-2,3-dihydro-1H-isoindol-2-yl}phenyl)cyclobutane-1-carbonitrile]
11 | 50 to 500 nM | 35 to 70% | > 500 nM | – | – | Cn1cnnc1CC1(c2cccc(N3Cc4c(cc(N5CCC(COCCOc6ccc7c(c6)C(=O)N(C6CCC(=O)NC6=O)C7=O)CC5)cc4C(F)(F)F)C3=O)c2)COC1 (stereo not shown) [Example 15, 2-(2,6-dioxo-3-piperidyl)-5-[2-[[1-[2-[3-[3-[(4-methyl-1,2,4-triazol-3-yl)methyl]oxetan-3-yl]phenyl]-3-oxo-7-(trifluoromethyl)isoindolin-5-yl]-4-piperidyl]methoxy]ethoxy]isoindoline-1,3-dione]
12 | 5 to 50 nM | 35 to 70% | < 5 nM | 35 to 70% | – | CC1c2nc(N3CCC(O[C@H]4CC[C@@H](CN5C[C@@H]6C[C@H]5CN6Cc5cc6c(c(C(F)(F)F)c5)CN(c5cccc(C7(Cc8nncn8C)CCC7)c5)C6=O)CC4)CC3)ccc2C(=O)N1C1CCC(=O)NC1=O (stereo partly drawn) [Example 223, 3-[7-methyl-5-oxo-2-(4-{[(1r,4r)-4-{[(1S,4S)-5-{[2-(3-{1-[(4-methyl-4H-1,2,4-triazol-3-yl)methyl]cyclobutyl}phenyl)-3-oxo-7-(trifluoromethyl)-2,3-dihydro-1H-isoindol-5-yl]methyl}-2,5-diazabicyclo[2.2.1]heptan-2-yl]methyl}cyclohexyl]oxy}piperidin-1-yl)-5H,6H,7H-pyrrolo[3,4-b]pyridin-6-yl]piperidine-2,6-dione]
